Data on one sequence can be found in publication PMC8748766, “The catalytic activity of TCPTP is auto-regulated by its intrinsically disordered tail and activated by Integrin alpha-1” (Nature Communications, 2022).

The target of assay [1] is T1, TCPTP (Homo sapiens, UniProt P17706).
T1 construct: fragments of TCPTP (residues: 1–387); His6 (N, cleaved yes); made in house; host or cells: E. coli BL21 (DE3) RIL
T1 sequence (P17706 1-387 isoform P17706-2): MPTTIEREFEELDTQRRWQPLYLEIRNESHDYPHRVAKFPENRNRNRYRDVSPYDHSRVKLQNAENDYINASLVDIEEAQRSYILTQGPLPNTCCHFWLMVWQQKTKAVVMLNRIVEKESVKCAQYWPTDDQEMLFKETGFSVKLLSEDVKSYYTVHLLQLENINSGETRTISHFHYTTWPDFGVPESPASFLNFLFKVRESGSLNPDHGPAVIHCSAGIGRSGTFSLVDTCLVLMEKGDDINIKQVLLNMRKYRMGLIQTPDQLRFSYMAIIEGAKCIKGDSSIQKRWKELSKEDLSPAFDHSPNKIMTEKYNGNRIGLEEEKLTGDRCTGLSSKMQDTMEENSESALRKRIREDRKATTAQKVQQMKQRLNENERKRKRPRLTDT
Put plainly: EC50 assay: TCPTP activation by ITGA1 peptides (pEGFR peptide-1 dephosphorylation). It counts as biochemical. The settings on record: 1 nM TCPTP, 50 μM pEGFR peptide-1, pH 7.4, 30 °C 30 min, n = 3. The text has this:
(§1) Polymerase chain reaction (PCR) fragments of TCPTP (residues: 1–387) TCPTPCAT (catalytic domain, residues: 1–288, 1–302 or 1–314), TCPTPTail (C-terminal tail, residues: 289–387 or 303–387) were amplified from full-length human TCPTP (TC45 isoform). TCPTP, TCPTPCAT (residues: 1–288, 1–314), and TCPTPTail (residues: 289–387) fragments were cloned into pMCSG7 including a N-terminal His6-tag using ligation-independent cloning. For all NMR experiments, the PCR fragments of TCPTP, TCPTPCAT (residues: 1–302) and TCPTPTail (residue: 303–387) were sub-cloned into pRP1B as previously described.
To determine the EC50, synthesized ITGA1 peptides (ITGA1_FCT, ITGA1_TCT and ITGA1_TR) were mixed with TCPTP, and phosphatase activity was measured using the phospho-EGFR peptides (pEGFR peptide-1) as substrate. Lyophilized powder of all peptides was dissolved in 25 mM Hepes pH 7.4, 50 mM NaCl. For the assay, the TCPTP concentration was fixed at 1 nM and substrate phospho-peptide at 50 μM. […] The absorbance of the reaction mixture was measured at 650 nm, which was converted to the amount of phosphate produced in reaction based on the standard curve generated from the known phosphate concentration. Data obtained from the reaction was fitted using nonlinear regression mode and EC50 values were calculated based on the equation function “Log(agonist) vs. response-variable slope” using Graph Pad Prism 9.0.

Assay [2] addresses T1, TCPTP. Put plainly: Kinetics of TCPTP with saturating ITGA1 peptide, pEGFR peptide-1 substrate. The settings on record: TCPTP saturated with ITGA1 peptide (ITGA1_TR 1 μM; ITGA1_FCT 25 μM), mean ± SE, n = 9. Format: biochemical.
Source text: as §1
The rate of dephosphorylation of TCPTP and TCPTPCAT (residue 1–314) against 2 phosphotyrosine peptides derived from EGFR was monitored either with or without ITGA1 peptide (ITGA1_FCT & ITGA1_TR) in assay buffer (25 mM Hepes pH 7.4, 50 mM NaCl and 1 mM DTT). Lyophilized powder of all synthetic peptides was dissolved in assay buffer without DTT (phosphopeptides, 5 mM; ITGA1 peptides, 2 mM). For the kinetic analysis, the concentration of the enzyme was fixed at 1 nM while the substrate (phosphopeptides) concentration was varied from 2.5 μM to 160 μM in a total reaction volume of 200 μl. Effect of ITGA1 peptide on TCPTP & TCPTPCAT kinetics were assessed in saturated condition by adding an excess amount of ITGA1 peptide to the reaction mixture (ITGA1_TR = 1 μM; ITGA1_FCT = 25 μM). The reaction was incubated at 30 °C for 30 min and stopped by the addition of 30 μl phosphate reagent (phosphate colorimetric assay kit; Bio Vision) following the manufacturer’s instructions. Data were normalized and fitted using a nonlinear curve, and kinetics parameters (KM and kcat) were calculated from the Michaelis-Menten equation using Graph Pad Prism 9.0. All data points in the enzyme kinetics experiment were measured in triplicate, and the experiments were repeated three times.

Consider “RPLKKKMEKRPLKKKMEK [ITGA1_TR, ITGA1 tandem repeat (2x ITGA1_TCT): …]”, for which, in assay [1], the “activation in EC50 assays (rank)” value was “strongest activation”. The kcat in assay [2] (pEGFR peptide-1, 1 nM enzyme, pH 7.4, 30 °C 30 min) was 26.2 ± 0.6 s⁻¹. In addition, the Km in assay [2] (pEGFR peptide-1, pH 7.4, 30 °C) amounted to 15.9 ± 1.3 µM. Further, the kcat/Km in assay [2] (pEGFR peptide-1) came out at 1.6e+06 ± 100000 M⁻¹ s⁻¹.

The term kcat denotes the number of substrate molecules converted per active site and unit of time at saturation. As a reminder, the Km is the substrate concentration at which the rate is half of its maximum. Usually kcat/Km stands for the second-order rate constant that governs catalysis at low substrate concentration.
